The target of assay [1] is T1, Recombinant human His-tagged Kat6a protein (amino acids 194-810) (Homo sapiens, UniProt Q92794).
T1 construct: Kat6a protein (amino acids 194-810); His
The assay can be described thus: Kat6a activity assay (TR-FRET, acetylation of Histone-H4-derived peptide). The conditions noted are these: 60 mins at 22° C., 220 nM H4 peptide, 600 nM Acetyl Coenzyme A, read-out: KAT6A - DPF/HAT domain IC50 [mol/l] (arithmetic mean). It counts as biochemical. For orientation: In TR-FRET formats the signal depends on donor and acceptor labels being close together.

In another assay the test system is MDA-MB-436 cells. The assay can be described thus: MDA-MB-436 proliferation assay (negative control cell line). The format is cell-based. The settings on record: Homo sapiens, 144 h, Alamar Blue, read-out: MDA-MB-436 proliferation assay, EC50 [M] (arithmetic mean). The method in brief:
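MDA-MB-436 cells (KAT6A deletion, low KAT6A protein) seeded at 3000 cells/well in DMEM/Ham's F12 with 2.5% FBS, treated in triplicate for 144 h at 37° C, 5% CO2. Viability read by Alamar Blue fluorescence at 590 nm after 2 h.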
For orientation: Resazurin is reduced to fluorescent resorufin, in cell work by metabolically active cells.

In a further assay the test system is LCLC97TM1. The assay can be described thus: LCLC97TM1 proliferation assay. It counts as cell-based. The conditions noted are these: read-out: LCLC97TM1 proliferation assay, EC50 [M] (arithmetic mean).
In assay [2] the target is T2, Recombinant human GST-tagged Kat6b protein (431-end) (Homo sapiens, UniProt Q8WYB5).
T2 construct: Kat6b protein (431-end, N-terminal GST-tag); GST (N)
T2 sequence (Q8WYB5 431-2073): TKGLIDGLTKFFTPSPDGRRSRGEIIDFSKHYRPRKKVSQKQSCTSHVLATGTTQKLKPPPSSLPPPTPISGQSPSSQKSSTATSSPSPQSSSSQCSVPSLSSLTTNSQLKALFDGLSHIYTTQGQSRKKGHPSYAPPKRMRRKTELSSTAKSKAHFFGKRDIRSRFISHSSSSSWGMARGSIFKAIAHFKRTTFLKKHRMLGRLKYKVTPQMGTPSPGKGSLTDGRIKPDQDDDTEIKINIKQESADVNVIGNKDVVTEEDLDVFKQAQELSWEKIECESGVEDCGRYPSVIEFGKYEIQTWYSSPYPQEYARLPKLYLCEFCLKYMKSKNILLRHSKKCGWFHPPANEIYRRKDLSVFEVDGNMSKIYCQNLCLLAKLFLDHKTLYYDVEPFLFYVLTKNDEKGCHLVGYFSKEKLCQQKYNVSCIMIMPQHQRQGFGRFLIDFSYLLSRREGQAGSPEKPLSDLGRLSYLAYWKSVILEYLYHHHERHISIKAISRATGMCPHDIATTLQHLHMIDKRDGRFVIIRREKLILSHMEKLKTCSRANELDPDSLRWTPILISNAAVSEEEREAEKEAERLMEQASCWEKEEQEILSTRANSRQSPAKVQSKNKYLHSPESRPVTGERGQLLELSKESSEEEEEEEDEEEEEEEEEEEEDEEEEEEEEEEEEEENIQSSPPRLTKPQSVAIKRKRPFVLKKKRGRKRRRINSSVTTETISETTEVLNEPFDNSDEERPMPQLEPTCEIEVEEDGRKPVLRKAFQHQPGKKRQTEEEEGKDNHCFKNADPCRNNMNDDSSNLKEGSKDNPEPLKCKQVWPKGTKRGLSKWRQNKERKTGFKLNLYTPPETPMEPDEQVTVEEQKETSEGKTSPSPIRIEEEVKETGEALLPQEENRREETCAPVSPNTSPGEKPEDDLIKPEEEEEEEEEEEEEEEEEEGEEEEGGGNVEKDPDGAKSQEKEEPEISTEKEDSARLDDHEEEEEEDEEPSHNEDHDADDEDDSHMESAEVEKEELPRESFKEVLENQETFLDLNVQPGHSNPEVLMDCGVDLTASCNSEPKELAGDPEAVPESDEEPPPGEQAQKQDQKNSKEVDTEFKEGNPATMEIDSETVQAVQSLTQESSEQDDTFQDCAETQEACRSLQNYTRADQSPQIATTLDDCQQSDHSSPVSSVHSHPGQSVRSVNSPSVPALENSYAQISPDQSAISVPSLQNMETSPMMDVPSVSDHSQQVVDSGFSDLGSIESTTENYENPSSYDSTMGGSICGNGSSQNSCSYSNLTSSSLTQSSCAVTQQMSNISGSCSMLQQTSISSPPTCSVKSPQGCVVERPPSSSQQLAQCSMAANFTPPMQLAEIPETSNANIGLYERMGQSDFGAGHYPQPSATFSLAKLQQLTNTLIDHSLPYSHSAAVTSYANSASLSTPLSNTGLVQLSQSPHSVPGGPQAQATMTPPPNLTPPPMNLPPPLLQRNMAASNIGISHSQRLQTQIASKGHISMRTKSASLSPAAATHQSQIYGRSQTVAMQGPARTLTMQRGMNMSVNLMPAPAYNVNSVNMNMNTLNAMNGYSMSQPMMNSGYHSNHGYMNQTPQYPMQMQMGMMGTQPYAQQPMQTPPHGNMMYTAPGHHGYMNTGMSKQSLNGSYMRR
The assay is described as follows: Kat6b activity assay (TR-FRET, acetylation of Histone-H4-derived peptide). The format is biochemical. The settings on record: 30 mins at 22° C., 500 nM H4 peptide, 600 nM Acetyl Coenzyme A, read-out: KAT6B activity assay IC50 [mol/l] (arithmetic mean). Here is the method: Kat6b inhibitory activities of the compounds described in the present invention were quantified using a Fluorescence Resonance Energy Transfer (TR-FRET) assay which measures acetylation of a synthetic, biotinylated Histone-H4-derived peptide by the enzyme.
In this case 50 nl DMSO were used instead of compounds. […] IC50 values were determined by regression analysis based on a 4 parameter equation (minimum, maximum, ICM, Hill; Y=Max+(Min−Max)/(1+(X/ICso) Hill) using the Screener Software (Genedata).

In another assay the test system is ZR-75-1 cells. The assay is described as follows: ZR-75-1 proliferation assay. It counts as cell-based. The settings on record: Homo sapiens, ZR-75-1, 144 h, Alamar Blue, read-out: ZR75-1 proliferation assay, EC50 [M] (arithmetic mean). Summed up: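 ZR-75-1 cells (focal KAT6A amplification), 3000 per well in RPMI 1640 with 2.5% FBS, were exposed to compound in triplicate for 144 h at 37 °C, 5% CO2. Viability read by Alamar Blue fluorescence at 590 nm after 2 h.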

In assay [3] the test system is ESR1 transcription in MVLN cells. The assay can be described thus: MVLN reporter assay: repression of ESR1 transcription (luciferase signal). It counts as cell-based. The settings on record: Homo sapiens, MVLN, 24 h, luciferase signal after 24 h, read-out: MVLN reporter assay, IC50 [M] (arithmetic mean). Summed up:
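MVLN cells, expressing ER and stably carrying a vitellogenin A2 ERE-luciferase reporter, treated with compound in duplicate; luciferase read after 24 h with Steadylite plus. Cell density checked in parallel by Alamar Blue fluorescence (530/590 nm, 2 h) before the luciferase read.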
For orientation: Reporter assays use an easily measured gene product as a stand-in for the process of interest.

[4] abbreviates: Homo sapiens, LCLC-97TM1, LCLC97TM1.

Structures are written as SMILES. Where two headings read alike, the source gives them in different places.

We go through 16 molecules from patent publication US20240279207A1, “SUBSTITUTED ACYL SULFONAMIDES FOR TREATING CANCER” (The Broad Institute, Inc., priority 2020, published 2024).

T1 sequence (Q92794 194-810): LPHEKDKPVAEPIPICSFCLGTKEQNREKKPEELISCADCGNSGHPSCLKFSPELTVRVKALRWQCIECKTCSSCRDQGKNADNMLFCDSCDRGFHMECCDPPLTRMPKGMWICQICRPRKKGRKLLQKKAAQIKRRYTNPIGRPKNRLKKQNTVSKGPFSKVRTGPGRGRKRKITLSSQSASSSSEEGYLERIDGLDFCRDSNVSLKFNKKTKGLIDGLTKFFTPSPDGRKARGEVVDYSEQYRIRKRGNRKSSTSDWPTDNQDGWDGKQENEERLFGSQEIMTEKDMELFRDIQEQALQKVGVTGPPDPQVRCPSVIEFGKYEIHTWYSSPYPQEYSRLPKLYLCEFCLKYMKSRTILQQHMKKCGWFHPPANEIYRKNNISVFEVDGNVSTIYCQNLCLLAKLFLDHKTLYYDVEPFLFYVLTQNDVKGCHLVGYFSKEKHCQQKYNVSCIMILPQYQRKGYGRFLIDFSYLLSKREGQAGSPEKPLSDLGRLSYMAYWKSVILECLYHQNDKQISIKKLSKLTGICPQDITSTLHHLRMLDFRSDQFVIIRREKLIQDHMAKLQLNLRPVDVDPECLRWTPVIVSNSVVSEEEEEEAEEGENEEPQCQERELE

Consider `O=C(NS(=O)(=O)c1ccccc1OC1CC1)c1cc2c(F)cc(N3CCC3)cc2o1` [Example 131, 6-(Azetidin-1-yl)-N-[2-(cyclopropyloxy)benzene-1-sulfonyl]-4-fluoro-1-benzofuran-2-carboxamide], for which the IC50 in assay [1] stood at 23.4 nM; in assay [2] it was 23.2 nM; in assay [3], 3.83e-08 M. In addition, the EC50 is greater than 2e-05 M in the assay on MDA-MB-436 cells, 7.53e-08 M in the assay on LCLC97TM1 (setting [4]) and 2.09e-07 M in the assay with ZR-75-1 cells.

Consider `CCOc1cccc(OC)c1S(=O)(=O)NC(=O)c1cc2c(F)cc(N3CCC3)cc2o1` [Example 1, 6-(Azetidin-1-yl)-N-(2-ethoxy-6-methoxybenzene-1-sulfonyl)-4-fluoro-1-benzofuran-2-carboxamide], for which the IC50 in assay [1] turned out to be 8.61 nM; in assay [2], 20.9 nM; in assay [3] it was 3.89e-08 M. In addition, the EC50 was greater than 2e-05 M in the assay on MDA-MB-436 cells, 2.13e-07 M in the assay on LCLC97TM1 (setting [4]) and 7.18e-08 M in the assay on ZR-75-1 cells.

Take `CC(C)(C)c1ccc(OCc2ccccc2)c(S(=O)(=O)NC(=O)c2cc3c(F)cc(N4CCC4)cc3o2)c1` [Example 225, 6-(Azetidin-1-yl)-N-[(2-(benzyloxy)-5-(tert-butyl)phenyl]sulfonyl)-4-fluorobenzofuran-2-carboxamide]: the IC50 in assay [1] was 3.72 nM; in assay [2], 9.82 nM; in assay [3], 2.76e-08 M. Moreover, the EC50 with MDA-MB-436 cells was 1.77e-05 M; in the assay on LCLC97TM1 (setting [4]), 1.14e-07 M; in the assay on ZR-75-1 cells, 7.5e-08 M.

Turning to `CCOc1ccc(C(C)CC)cc1S(=O)(=O)NC(=O)c1cc2c(F)cc(N3CCC3)cc2o1` (racemic) [Example 207, 6-(Azetidin-1-yl)-N-[(5-sec-butyl-2-ethoxyphenyl)sulfonyl]-4-fluoro-1-benzofuran-2-carboxamide (rac)], the IC50 in assay [1] was found to be 1.86 nM; in assay [2] it was 5.65 nM; in assay [3] it was 9.04e-09 M. In addition, the EC50 in the assay on MDA-MB-436 cells is greater than 2e-05 M; in the assay with LCLC97TM1 (setting [4]) it was 4.29e-08 M; in the assay on ZR-75-1 cells, 1.03e-07 M.

For `CCOc1ccccc1S(=O)(=O)NC(=O)c1cc2c(F)cc(N3CCC3)cc2o1` [Example 2, 6-(Azetidin-1-yl)-N-(2-ethoxybenzene-1-sulfonyl)-4-fluoro-1-benzofuran-2-carboxamide], the IC50 in assay [1] turned out to be 45.2 nM; in assay [2], 95.2 nM; in assay [3], 5.54e-08 M. For the same molecule, the EC50 with MDA-MB-436 cells was greater than 2e-05 M; in the assay with LCLC97TM1 (LCLC97TM1), 3.38e-07 M; in the assay on ZR-75-1 cells, 1.64e-07 M.

With `CC(C)Oc1ccccc1S(=O)(=O)NC(=O)c1cc2c(F)cc(N3CCC3)cc2o1` [Example 129, 6-(Azetidin-1-yl)-4-fluoro-N-{2-[(propan-2-yl)oxy]benzene-1-sulfonyl}-1-benzofuran-2-carboxamide], the IC50 is 36.4 nM in assay [1], 51.8 nM in assay [2] and 2.74e-08 M in assay [3]. The EC50 was greater than 2e-05 M in the assay with MDA-MB-436 cells, 4.11e-07 M in the assay on LCLC97TM1 (setting [4]) and 1.42e-07 M with ZR-75-1 cells.

On to `COc1ccc(-c2cn(C)nc2C)cc1S(=O)(=O)NC(=O)c1cc2c(F)cc(N3CCC3)cc2o1` [Example 195, 6-(Azetidin-1-yl)-N-[5-(1,3-dimethyl-1H-pyrazol-4-yl)-2-methoxybenzene-1-sulfonyl]-4-fluoro-1-benzofuran-2-carboxamide], for which the IC50 in assay [1] worked out at 5.07 nM; in assay [2] it was 20.1 nM; in assay [3], 1.11e-07 M. Besides, the values for the EC50 with MDA-MB-436 cells, with LCLC97TM1 (setting [4]) and with ZR-75-1 cells were greater than 2e-05 M, 8.37e-07 M and 1.99e-07 M, respectively.

As for `Cc1ccc2cccc(S(=O)(=O)NC(=O)c3cc4c(F)cc(N5CC(F)C5)cc4o3)c2n1` [Example 152, 4-Fluoro-6-(3-fluoroazetidin-1-yl)-N-(2-methylquinoline-8-sulfonyl)-1-benzofuran-2-carboxamide], the IC50 in assay [1] is 13.9 nM; in assay [2] it was 20.3 nM; in assay [3], 3.69e-08 M. Also, the EC50 was greater than 2e-05 M in the assay on MDA-MB-436 cells, 1.63e-07 M with LCLC97TM1 (setting [4]) and 7.66e-08 M with ZR-75-1 cells.

Take `CCOc1ccccc1S(=O)(=O)NC(=O)c1cc2ccc(N3CC(F)C3)cc2o1` [Example 107, N-(2-Ethoxybenzene-1-sulfonyl)-6-(3-fluoroazetidin-1-yl)-1-benzofuran-2-carboxamide]: the IC50 is 275 nM in assay [1], 853 nM in assay [2] and 1.33e-07 M in assay [3]. Further, the EC50 in the assay with LCLC97TM1 (setting [4]) worked out at 9.16e-07 M; in the assay on ZR-75-1 cells, 4.1e-07 M.

Take `CC(C)c1ccc(OCC2CC2(F)F)c(S(=O)(=O)NC(=O)c2cc3c(F)cc(N4CCC4)cc3o2)c1` (racemic) [Example 231, 6-(Azetidin-1-yl)-N-((2-((2,2-difluorocyclopropyl)methoxy)-5-isopropylphenyl)sulfonyl)-4-fluorobenzofuran-2-carboxamide (rac)]: the IC50 in assay [1] was determined as 4.22 nM; in assay [2], 28.8 nM; in assay [3] it was 1.83e-08 M. Also, the values for the EC50 with MDA-MB-436 cells, in the assay with LCLC97TM1 (setting [4]) and in the assay with ZR-75-1 cells were greater than 2e-05 M, 1.99e-07 M and 1.58e-07 M, respectively.

In the case of `CC(C)c1ccc(OCc2ccccc2)c(S(=O)(=O)NC(=O)c2cc3c(F)cc(N4CCC4)cc3o2)c1` [Example 213, 6-(azetidin-1-yl)-N-(2-benzyloxy-5-isopropyl-phenyl)sulfonyl-4-fluoro-benzofuran-2-carboxamide], the results for the IC50 in assay [1], in assay [2] and in assay [3] were 6.18 nM, 14.7 nM and 3.31e-08 M, respectively. The EC50 in the assay on MDA-MB-436 cells is 1.41e-05 M; in the assay with LCLC97TM1 (setting [4]), 1.52e-07 M; with ZR-75-1 cells it was 1.17e-07 M.

`CC(C)c1cccnc1S(=O)(=O)NC(=O)c1cc2c(F)cc(N3CCC3)cc2o1` [Example 79, 6-(Azetidin-1-yl)-4-fluoro-N-[3-(propan-2-yl)pyridine-2-sulfonyl]-1-benzofuran-2-carboxamide]: the IC50 in assay [1] came out at 9.58 nM; in assay [2] it was 13.6 nM; in assay [3], 2.1e-08 M. The figures for the EC50 in the assay on MDA-MB-436 cells, in the assay with LCLC97TM1 (setting [4]) and in the assay on ZR-75-1 cells were greater than 2e-05 M, 3.9e-08 M and 3.61e-08 M, respectively.

In the case of `CCOc1ccc(C(C)(C)C)cc1S(=O)(=O)NC(=O)c1cc2c(F)cc(N3CC(F)C3)cc2o1` [Example 113, N-(5-tert-butyl-2-ethoxybenzene-1-sulfonyl)-4-fluoro-6-(3-fluoroazetidin-1-yl)-1-benzofuran-2-carboxamide], the IC50 in assay [1] is 4.48 nM; in assay [2] it was 11.6 nM; in assay [3], 1.08e-08 M. The EC50 is greater than 2e-05 M with MDA-MB-436 cells, 3.7e-08 M in the assay with LCLC97TM1 (setting [4]) and 2.94e-08 M in the assay with ZR-75-1 cells.

With `CC(C)c1ccc(OCC2CC2)c(S(=O)(=O)NC(=O)c2cc3c(F)cc(N4CCC4)cc3o2)c1` [Example 214, 6-(azetidin-1-yl)-N-[2-(cyclopropylmethoxy)-5-isopropyl-phenyl]sulfonyl-4-fluoro-benzofuran-2-carboxamide], the figures for the IC50 in assay [1], in assay [2] and in assay [3] were 3.91 nM, 20.3 nM and 2.43e-08 M, respectively. The results for the EC50 with LCLC97TM1 (setting [4]) and in the assay with ZR-75-1 cells were 5.77e-07 M and 4.47e-07 M, respectively.

Take `O=C(NS(=O)(=O)c1c(OCc2ccccc2)cccc1OC1CCC1)c1cc2c(F)cc(N3CCC3)cc2o1` [Example 5, 6-(Azetidin-1-yl)-N-[2-(benzyloxy)-6-(cyclobutyloxy)benzene-1-sulfonyl]-4-fluoro-1-benzofuran-2-carboxamide]: the IC50 in assay [1] turned out to be 1.42 nM; in assay [3], 6.43e-08 M. The EC50 is greater than 2e-05 M in the assay with MDA-MB-436 cells, 9.88e-06 M in the assay with LCLC97TM1 (setting [4]) and 3.57e-06 M in the assay with ZR-75-1 cells.

For the molecule `CC1(C)CCc2cccc(S(=O)(=O)NC(=O)c3cc4c(F)cc(N5CCC5)cc4o3)c2O1` [Example 80, 6-(Azetidin-1-yl)-N-(2,2-dimethyl-3,4-dihydro-2H-1-benzopyran-8-sulfonyl)-4-fluoro-1-benzofuran-2-carboxamide], the figures for the IC50 in assay [1] and in assay [3] were 12.1 nM and 7.27e-08 M, respectively. For the same molecule, the EC50 in the assay on MDA-MB-436 cells was greater than 2e-05 M; in the assay with LCLC97TM1 (setting [4]), 3.17e-07 M; in the assay on ZR-75-1 cells it was 1.49e-07 M.
